Test [1] concerns Rattus norvegicus. Nature of the test: Percentage of animals emitting 50 presses on the LSD appropriate lever during the test period in rat at 0.02 mg/kg(0.046 uM/kg). Format: functional.
Test [2] concerns Rattus norvegicus. Nature of the test: Percentage of animals failing to emit 50 presses on either lever within the 15-min test period in rat at 0.01 mg/kg (0.023 uM/kg). Format: functional.
Test [3] relates to Rattus norvegicus. Nature of the test: Percentage of animals failing to emit 50 presses on either lever within the 15-min test period in rat at 0.08 mg/kg (0.186 uM/kg). The format is functional.
The species named for test [4] is Rattus norvegicus. The experiment in a line: Effective dose for LSD-like behavioral effect in rats. The format is functional.
Test [5] relates to Rattus norvegicus. The experiment in a line: Percentage of animals emitting 50 presses on the LSD appropriate lever during the test period in rat at 0.01 mg/kg (0.023 uM/kg). The format is functional.
Test [6] relates to Rattus norvegicus. Nature of the test: Percentage of animals failing to emit 50 presses on either lever within the 15-min test period in rat at 0.04 mg/kg (0.093 uM/kg). The format is functional.
Test [7] deals with Rattus norvegicus. Nature of the test: Percentage of animals failing to emit 50 presses on either lever within the 15-min test period in rat at 0.02 mg/kg(0.046 uM/kg). The format is functional.
In test [8] the test system is Rattus norvegicus. Nature of the test: Percentage of animals emitting 50 presses on the LSD appropriate lever during the test period i8n at 0.04 mg/kg (0.093 uM/kg). The format is functional.
Test [9] deals with Rattus norvegicus. Nature of the test: Percentage of animals emitting 50 presses on the LSD appropriate lever during the test period in at 0.08 mg/kg (0.186 uM/kg). Format: functional.
The target of test [10] is T1, 5-hydroxytryptamine receptor 2A (Homo sapiens, UniProt P28223). Nature of the test: Binding ability of compound at cloned human 5-hydroxytryptamine 2A receptor using [125 I]DOI as radioligand.
T1 sequence (P28223 whole entry): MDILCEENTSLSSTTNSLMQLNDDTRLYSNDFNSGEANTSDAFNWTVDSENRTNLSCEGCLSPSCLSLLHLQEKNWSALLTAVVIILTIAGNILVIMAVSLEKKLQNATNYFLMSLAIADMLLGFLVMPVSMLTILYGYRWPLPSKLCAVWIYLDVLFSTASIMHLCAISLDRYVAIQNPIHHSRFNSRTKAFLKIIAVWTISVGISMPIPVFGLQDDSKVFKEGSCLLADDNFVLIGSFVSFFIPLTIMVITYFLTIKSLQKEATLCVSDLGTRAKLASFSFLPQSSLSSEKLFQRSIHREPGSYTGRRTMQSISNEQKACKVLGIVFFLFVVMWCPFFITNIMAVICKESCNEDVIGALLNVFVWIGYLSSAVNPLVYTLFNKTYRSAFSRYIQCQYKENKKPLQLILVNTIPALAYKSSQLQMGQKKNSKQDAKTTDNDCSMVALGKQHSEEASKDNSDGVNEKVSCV
The target of test [11] is T2, 5-hydroxytryptamine receptor 2C (Homo sapiens, UniProt P28335).
T2 sequence (P28335 whole entry): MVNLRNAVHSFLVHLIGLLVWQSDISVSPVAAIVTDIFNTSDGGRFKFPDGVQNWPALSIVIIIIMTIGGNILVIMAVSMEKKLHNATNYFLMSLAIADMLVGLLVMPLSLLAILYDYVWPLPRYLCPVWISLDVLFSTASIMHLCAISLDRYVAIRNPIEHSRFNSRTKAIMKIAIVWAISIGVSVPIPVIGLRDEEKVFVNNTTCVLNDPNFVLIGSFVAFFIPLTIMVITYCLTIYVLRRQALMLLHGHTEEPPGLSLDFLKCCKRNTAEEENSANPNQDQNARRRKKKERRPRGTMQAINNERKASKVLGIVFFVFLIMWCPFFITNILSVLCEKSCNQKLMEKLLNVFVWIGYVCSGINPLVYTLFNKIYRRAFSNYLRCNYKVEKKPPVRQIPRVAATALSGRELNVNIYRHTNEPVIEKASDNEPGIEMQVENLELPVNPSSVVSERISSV
The experiment in a line: Binding ability of compound at cloned human 5-hydroxytryptamine 2C receptor using [125 I]DOI as radioligand.

The target in test [12] is T3, 5-hydroxytryptamine receptor 2B (Homo sapiens, UniProt P41595). Nature of the test: Binding ability of compound at cloned human 5-hydroxytryptamine 2B receptor using [3H]5-HT 2B as radioligand.
T3 sequence (P41595 whole entry): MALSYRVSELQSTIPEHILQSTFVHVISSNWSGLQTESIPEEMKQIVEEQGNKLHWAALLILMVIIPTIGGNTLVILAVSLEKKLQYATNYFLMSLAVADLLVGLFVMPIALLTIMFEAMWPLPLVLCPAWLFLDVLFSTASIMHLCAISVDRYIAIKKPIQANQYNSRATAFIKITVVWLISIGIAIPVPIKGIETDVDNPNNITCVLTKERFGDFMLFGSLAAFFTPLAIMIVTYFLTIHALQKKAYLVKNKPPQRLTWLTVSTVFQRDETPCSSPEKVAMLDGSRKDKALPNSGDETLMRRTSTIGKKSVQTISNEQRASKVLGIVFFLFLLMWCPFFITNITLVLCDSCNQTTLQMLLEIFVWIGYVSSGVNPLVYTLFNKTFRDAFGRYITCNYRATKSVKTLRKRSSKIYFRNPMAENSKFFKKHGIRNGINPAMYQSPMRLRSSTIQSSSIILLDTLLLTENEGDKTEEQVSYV
Test [13] has as its target T4, 5-hydroxytryptamine receptor 1A (Rattus norvegicus, UniProt P19327).
T4 sequence (P19327 whole entry): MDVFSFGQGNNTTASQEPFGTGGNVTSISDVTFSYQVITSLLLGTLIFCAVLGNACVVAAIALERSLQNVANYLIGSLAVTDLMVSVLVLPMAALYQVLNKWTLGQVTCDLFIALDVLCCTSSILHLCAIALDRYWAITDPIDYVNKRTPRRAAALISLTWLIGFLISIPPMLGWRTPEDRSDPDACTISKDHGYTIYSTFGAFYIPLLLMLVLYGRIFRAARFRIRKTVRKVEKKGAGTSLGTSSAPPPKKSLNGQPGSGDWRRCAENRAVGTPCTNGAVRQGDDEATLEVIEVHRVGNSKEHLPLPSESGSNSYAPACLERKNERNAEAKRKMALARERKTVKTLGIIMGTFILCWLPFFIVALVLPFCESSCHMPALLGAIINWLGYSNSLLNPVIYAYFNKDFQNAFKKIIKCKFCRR
The experiment in a line: Affinity at [3H]8-OH-DPAT-labeled 5-hydroxytryptamine 1A receptor in rat brain homogenate was determined. The format is tissue-based.

Test [14] has as its target T1, 5-hydroxytryptamine receptor 2A. The experiment in a line: Binding ability of compound at cloned human 5-hydroxytryptamine 2A receptor using [3H]ketanserin as radioligand.
Test [15] has as its target T2, 5-hydroxytryptamine receptor 2C. Nature of the test: Binding ability of compound at cloned human 5-hydroxytryptamine 2C receptor using [3H]- mesulergine as radioligand.
Test [16] has as its target 5-hydroxytryptamine receptor 2A (Rattus norvegicus, UniProt P14842). The experiment in a line: Affinity at [3H]ketanserin-labeled 5-hydroxytryptamine 2A receptor in rat brain homogenate was determined. Format: tissue-based.
The target in test [17] is T3, 5-hydroxytryptamine receptor 2B. The experiment in a line: Binding ability of compound at cloned human 5-hydroxytryptamine 2B receptor using [3H]rauwolscine as radioligand.

Consider 2 molecules from ChEMBL document CHEMBL1131247, “Substituted naphthofurans as hallucinogenic phenethylamine-ergoline hybrid molecules with unexpected muscarinic antagonist activity” (J Med Chem, 1998).

“And” between values parts separate entries of the source, which are not always exact repeats. Equal values may be shown once.

In general, ED50 refers to the dose that gives a 50% effect, or the effect in half of the subjects. As a reminder, the Ki is the dissociation constant of the complex between target and ligand, obtained from inhibition or displacement. A low value points to tighter binding.

Chain of 5-hydroxytryptamine receptor 2A (Rattus norvegicus, UniProt P14842) (P14842 whole entry): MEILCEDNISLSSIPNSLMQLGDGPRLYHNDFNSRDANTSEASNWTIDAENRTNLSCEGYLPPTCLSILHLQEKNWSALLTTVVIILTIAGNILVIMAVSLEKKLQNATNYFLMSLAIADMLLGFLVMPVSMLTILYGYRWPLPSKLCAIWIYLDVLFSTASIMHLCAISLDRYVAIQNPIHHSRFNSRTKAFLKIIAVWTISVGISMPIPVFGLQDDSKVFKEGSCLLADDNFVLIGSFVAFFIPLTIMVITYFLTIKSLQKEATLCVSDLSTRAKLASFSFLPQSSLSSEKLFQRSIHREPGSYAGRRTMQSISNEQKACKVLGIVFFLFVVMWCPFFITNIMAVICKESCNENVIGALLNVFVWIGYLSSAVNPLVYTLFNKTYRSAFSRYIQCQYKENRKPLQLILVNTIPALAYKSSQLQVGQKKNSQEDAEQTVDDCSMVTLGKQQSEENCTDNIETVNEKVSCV

As for `CCN(CC)C(=O)[C@@H]1C=C2c3cccc4[nH]cc(c34)C[C@H]2N(C)C1` [LYSERGIDE], the SDL turned out to be 62% in the test on Rattus norvegicus [1], 31% in the test with Rattus norvegicus [5], 81% in the test with Rattus norvegicus [8] and 100% with Rattus norvegicus [9]. For the same molecule, the D in the test with Rattus norvegicus [2] was 0%; with Rattus norvegicus [3], 0%; in the test with Rattus norvegicus [6], 0%; with Rattus norvegicus [7], 7%. Also, the ED50 in the test filed under Rattus norvegicus [4] was 0.037 µmol/kg and 0.016 mg/kg.
As for `C[C@@H](N)Cc1c2c(c(Br)c3c1OCC3)OCC2`, the Ki in test [10] stood at 0.48 nM; in test [11] it was 0.3 nM; in test [12], 1.6 nM; in test [13] it was 4300 nM; in test [14] it was 10.7 nM; in test [15] it was 2.28 nM. Besides, the inhibition constant Ki in test [16] turned out to be 18 nM; in [17], 1.15 nM. Also, the 50% effect level in the test filed under Rattus norvegicus [4] (ED50) was put at a dose of 0.061 mg/kg.
